How the values were obtained:
in vivo [1] = settings: phylodendrons
Method: (§1) Leaves obtained from the treated and untreated trees 100 days after treatment were analyzed for imidacloprid by enzyme-linked immunosorbent assay (ELISA). Briefly, leaves were dried completely and leaf blade material was separated from stems and petioles. The leaf blade material was ground to a fine powder, and about 5 grams of the material placed in a vial. A measured amount of methanol was added so that the leaf material was covered and 1 to 2 ml of methanol was beyond the leaf material, for a total of 10 to 20 ml of methanol. The vials were mixed well at least twice a day for at least 48 hours. After at least 48 hours, 10 microliters of the liquid was transferred to a smaller vial, and 1.5 ml distilled water added, and the vials were mixed well. ELISA was performed using the Envirologix™ QuantiPlate Kit for Imidacloprid (EP 006).
Five ml of a formulation of 5% imidacloprid and 95% THFA was applied to the soil of each of two 4-inch diameter pots of phylodendrons. An equal number of control plants received no insecticide treatment. All of the plants were watered and kept in the same area. On the tenth day after treatment, leaves from treated and control plants were collected and tested for imidacloprid by ELISA as described in Example 1.

in vivo [2] = settings: aspen tree
Method: The tree had not previously been treated with any pesticide. About 4 to 5 ml of a formulation containing 5% imidacloprid and 95% tetrahydrofurfuryl alcohol (THFA) was poured onto the soil around the base and then watered in.
as §1

O=[N+]([O-])NC1=NCCN1Cc1ccc(Cl)nc1 [imidacloprid]
Time for absorption by the roots and translocation to the leaves (in vivo [1]): ≤ 10 days | concentration at 10 days (in vivo [1]): 72000 ng/g | concentration at 100 days (in vivo [2]): 17000 ng/g

Reference: patent publication US8664162B2, “Method for application of pesticides and plant growth regulators and nutrients to plants” (ArborSystems, priority 2009, dated 2014)
